PMC11243320, “Tailoring Fibroblast-Activation Protein Targeting for Theranostics: A Comparative Preclinical Evaluation of the ^68Ga- and ^177Lu-Labeled Monomeric and Dimeric Fibroblast-Activation Protein Inhibitors DOTA.SA.FAPi and DOTAGA.(SA.FAPi)2” (Molecules, 2024)

Experiment: Lipophilicity LogD octanol/PBS pH 7.4, shake-flask method
Format: physicochemical
Procedure: The lipophilicity (LogDoctanol/PBS) and protein binding of the four radiotracers in human serum were determined as described in the Supplemental Data. […]
minimum conjugate amount. Briefly, the Ge-68/Ga-68 generator was eluted with 5 mL HCl 0.1 N and the eluate (~300 MBq) was loaded onto a cation exchange column (Strata-XC, Phenomenex). […]
After the labeling with gallium-68 or lutetium-177 and the quality control of the generated radiotracers, one equivalent of either natGa(NO3)3 or natLuCl3∙6H2O was added to the relevant radiolabeling solutions. […] The homogeneity was determined by HPLC, […]
Lipophilicity /Protein Binding Studies and Metabolic Stability in Human Serum The lipophilicity (LogD Octanol/PBS, pH 7.4) was estimated by the “shake –flask” method: the labelled conju-gate (20 pmol; 0.3 MBq) was added to a 1:1 mixture of 1-octanol (500 μL) and PBS (500 μL, pH 7.4). […] From each phase, an aliquot (50 μL) was pipetted out and measured in a gamma counter. […] The partition coefficient was calculated as the average log ratio of the radioactivity in the organic fraction and […]

Row | Lipophilicity LogDoctanol/PBS-pH7.4 | Compound
1 | −3.38 ± 0.03 | N#C[C@@H]1CC(F)(F)CN1C(=O)CNC(=O)c1ccnc2ccc(OCCCCNc3c(NCCNC(=O)CN4CCN(CC(=O)[O-])CCN(CC(=O)[O-])CCN(CC(=O)[O-])CC4)c(=O)c3=O)cc12.[68Ga+3] [[^68Ga]Ga-DOTA.SA.FAPi]
2 | −2.86 ± 0.06 | N#C[C@@H]1CC(F)(F)CN1C(=O)CNC(=O)c1ccnc2ccc(OCCCCNc3c(NCCNC(=O)CN4CCN(CC(=O)[O-])CCN(CC(=O)[O-])CCN(CC(=O)[O-])CC4)c(=O)c3=O)cc12.[177Lu+3] [[^177Lu]Lu-DOTA.SA.FAPi]
